Measured values published in patent US9593108B2, “Compounds and methods for antiviral treatment” (PTC Therapeutics, Inc., priority 2009, dated 2017).

Legend:
[1] = tested on: HCV replicon RNA (GenBank Accession No. AJ242654); experiment: HCV Replicon Assay (replicon RNA reduction and/or Fluc reporter signal); assay type: cell-based, Hepatitis C virus; settings: Hepatitis C virus, 72 h, replicon-containing cells cultured with test compound for up to 3 days
Procedure, shortened: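 IC50 values mostly reflect the drop in replicon RNA, though Fluc reporter signal may also be used. Compound incubated with cells carrying the bicistronic replicon for as long as 3 days; interferon served as positive control.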

SMILES	IC50 [1]	melting point
COc1ccc2c(n1)c(C#N)c(-c1ccc(S(=O)(=O)NC(CF)CF)cn1)n2C1CCC1 [Cpd 15, 6-(3-cyano-1-cyclobutyl-5-methoxy-1H-pyrrolo[3,2-b]pyridin-2-yl)-N-(1,3-difluoropropan-2-yl)pyridine-3-sulfonamide]	500 to 2000 nM	199 to 201 °C
N#Cc1c(-c2ncc(S(=O)(=O)NC(CF)CF)cn2)n(C2CCC2)c2ncc(F)cc12 [Cpd 16, 2-(3-cyano-1-cyclobutyl-5-fluoro-1H-pyrrolo[2,3-b]pyridin-2-yl)-N-(1,3-difluoropropan-2-yl)pyrimidine-5-sulfonamide]	500 to 2000 nM	204 to 206 °C
N#Cc1c(-c2ncc(S(=O)(=O)NC(CF)CF)cn2)n(C2CCCC2)c2ncc(Cl)cc12 [Cpd 17, 2-(5-chloro-3-cyano-1-cyclopentyl-1H-pyrrolo[2,3-b]pyridin-2-yl)-N-(1,3-difluoropropan-2-yl)pyrimidine-5-sulfonamide]	500 to 2000 nM	247 to 248 °C
C[C@H](NS(=O)(=O)c1ccc(-c2c(C#N)c3cccnc3n2C2CCC2)nc1)C(F)(F)F [Cpd 18, 6-(3-cyano-1-cyclobutyl-1H-pyrrolo[2,3-b]pyridin-2-yl)-N-[(2S)-1,1,1-trifluoropropan-2-yl]pyridine-3-sulfonamide]	500 to 2000 nM	183 to 185 °C
COc1ccc2c(n1)c(C#N)c(-c1ncc(S(=O)(=O)NC(CF)CF)cn1)n2C1CCC1 [Cpd 19, 2-(3-cyano-1-cyclobutyl-5-methoxy-1H-pyrrolo[3,2-b]pyridin-2-yl)-N-(1,3-difluoropropan-2-yl)pyrimidine-5-sulfonamide]	2000 to 5000 nM	241 to 243 °C
C[C@H](NS(=O)(=O)c1cnc(-c2c(C#N)c3cc(F)cnc3n2C2CCC2)nc1)C(F)(F)F [Cpd 21, 2-(3-cyano-1-cyclobutyl-5-fluoro-1H-pyrrolo[2,3-b]pyridin-2-yl)-N-[(2S)-1,1,1-trifluoropropan-2-yl]pyrimidine-5-sulfonamide]	< 500 nM	186 to 187 °C
COc1cnc2c(c1)c(C#N)c(-c1ncc(S(=O)(=O)N[C@@H](C)C(F)(F)F)cn1)n2C1CCC1 [Cpd 23, 2-(3-cyano-1-cyclobutyl-5-methoxy-1H-pyrrolo[2,3-b]pyridin-2-yl)-N-[(2S)-1,1,1-trifluoropropan-2-yl]pyrimidine-5-sulfonamide]	500 to 2000 nM	193 to 196 °C
C[C@H](NS(=O)(=O)c1ccc(-c2c(C#N)c3cc(Cl)cnc3n2C2CCCC2)nc1)C(F)(F)F [Cpd 24, 6-(5-chloro-3-cyano-1-cyclopentyl-1H-pyrrolo[2,3-b]pyridin-2-yl)-N-[(2S)-1,1,1-trifluoropropan-2-yl]pyridine-3-sulfonamide]	< 500 nM	197 to 199 °C
C[C@H](NS(=O)(=O)c1cnc(-c2c(C#N)c3cc(Cl)cnc3n2C2CCCC2)nc1)C(F)(F)F [Cpd 25, 2-(5-chloro-3-cyano-1-cyclopentyl-1H-pyrrolo[2,3-b]pyridin-2-yl)-N-[(2S)-1,1,1-trifluoropropan-2-yl]pyrimidine-5-sulfonamide]	500 to 2000 nM	206 to 208 °C
Cc1cc2c(cn1)c(C#N)c(-c1ccc(S(=O)(=O)NC(CF)CF)cn1)n2C1CCC1 [Cpd 26, 6-(3-cyano-1-cyclobutyl-6-methyl-1H-pyrrolo[3,2-c]pyridin-2-yl)-N-(1,3-difluoropropan-2-yl)pyridine-3-sulfonamide]	500 to 2000 nM	216 to 218 °C
Cc1cc2c(cn1)c(C#N)c(-c1ncc(S(=O)(=O)NC(CF)CF)cn1)n2C1CCC1 [Cpd 27, 2-(3-cyano-1-cyclobutyl-6-methyl-1H-pyrrolo[3,2-c]pyridin-2-yl)-N-(1,3-difluoropropan-2-yl)pyrimidine-5-sulfonamide]	< 500 nM	234 to 236 °C
Cc1cc2c(cn1)c(C#N)c(-c1ccc(S(=O)(=O)N[C@@H](C)C(F)(F)F)cn1)n2C1CCC1 [Cpd 28, 6-(3-cyano-1-cyclobutyl-6-methyl-1H-pyrrolo[3,2-c]pyridin-2-yl)-N-[(2S)-1,1,1-trifluoropropan-2-yl]pyridine-3-sulfonamide]	2000 to 5000 nM	189 to 191 °C
Cc1cc2c(cn1)c(C#N)c(-c1ccc(S(=O)(=O)N[C@H](C)C(F)(F)F)cn1)n2C1CCC1 [Cpd 29, 6-(3-cyano-1-cyclobutyl-6-methyl-1H-pyrrolo[3,2-c]pyridin-2-yl)-N-[(2R)-1,1,1-trifluoropropan-2-yl]pyridine-3-sulfonamide]	< 500 nM	176 to 178 °C
Cc1cc2c(cn1)c(C#N)c(-c1ccc(S(=O)(=O)N[C@@H](C)C(F)(F)F)cc1)n2C1CCC1 [Cpd 30, 4-(3-cyano-1-cyclobutyl-6-methyl-1H-pyrrolo[3,2-c]pyridin-2-yl)-N-[(2S)-1,1,1-trifluoropropan-2-yl]benzenesulfonamide]	< 500 nM	248 to 249 °C
Cc1cc2c(cn1)c(C#N)c(-c1ccc(S(=O)(=O)N[C@H](C)C(F)(F)F)cc1)n2C1CCC1 [Cpd 31, 4-(3-cyano-1-cyclobutyl-6-methyl-1H-pyrrolo[3,2-c]pyridin-2-yl)-N-[(2R)-1,1,1-trifluoropropan-2-yl]benzenesulfonamide]	< 500 nM	247 to 249 °C
Cc1cc2c(cn1)c(C#N)c(-c1ncc(S(=O)(=O)NC(C)C)cn1)n2C1CCC1 [Cpd 32, 2-(3-cyano-1-cyclobutyl-6-methyl-1H-pyrrolo[3,2-c]pyridin-2-yl)-N-(propan-2-yl)pyrimidine-5-sulfonamide]	< 500 nM	242 to 243 °C
Cc1cc2c(cn1)c(C#N)c(-c1ccc(S(=O)(=O)NC(CF)CF)cc1)n2C1CCC1 [Cpd 33, 4-(3-cyano-1-cyclobutyl-6-methyl-1H-pyrrolo[3,2-c]pyridin-2-yl)-N-(1,3-difluoropropan-2-yl)benzenesulfonamide]	< 500 nM	234 to 236 °C
N#Cc1c(-c2ccc(S(=O)(=O)NC(CF)CF)cc2)n(C2CCC2)c2ncccc12 [Cpd 34, 4-(3-cyano-1-cyclobutyl-1H-pyrrolo[2,3-b]pyridin-2-yl)-N-(1,3-difluoropropan-2-yl)benzenesulfonamide]	< 500 nM	180 to 182 °C
C[C@@H](NS(=O)(=O)c1ccc(-c2c(C#N)c3cccnc3n2C2CCC2)nc1)C(F)(F)F [Cpd 35, 6-(3-cyano-1-cyclobutyl-1H-pyrrolo[2,3-b]pyridin-2-yl)-N-[(2R)-1,1,1-trifluoropropan-2-yl]pyridine-3-sulfonamide]	< 500 nM	184 to 186 °C
CC(C)NS(=O)(=O)c1cnc(-c2c(C#N)c3cccnc3n2C2CCC2)nc1 [Cpd 36, 2-(3-cyano-1-cyclobutyl-1H-pyrrolo[2,3-b]pyridin-2-yl)-N-(propan-2-yl)pyrimidine-5-sulfonamide]	< 500 nM	197 to 199 °C
CC(C)NS(=O)(=O)c1cnc(-c2c(C#N)c3cc(F)cnc3n2C2CCC2)nc1 [Cpd 37, 2-(3-cyano-1-cyclobutyl-5-fluoro-1H-pyrrolo[2,3-b]pyridin-2-yl)-N-(propan-2-yl)pyrimidine-5-sulfonamide]	< 500 nM	207 to 209 °C
COc1ccc2c(C#N)c(-c3ccc(S(=O)(=O)N[C@@H](C)C(F)(F)F)cn3)n(C3CCC3)c2n1 [Cpd 40, 6-(3-cyano-1-cyclobutyl-6-methoxy-1H-pyrrolo[2,3-b]pyridin-2-yl)-N-[(2S)-1,1,1-trifluoropropan-2-yl]pyridine-3-sulfonamide]	500 to 2000 nM	193 to 194 °C
COc1ccc2c(C#N)c(-c3ccc(S(=O)(=O)NC(CF)CF)cn3)n(C3CCC3)c2n1 [Cpd 41, 6-(3-cyano-1-cyclobutyl-6-methoxy-1H-pyrrolo[2,3-b]pyridin-2-yl)-N-(1,3-difluoropropan-2-yl)pyridine-3-sulfonamide]	< 500 nM	194 to 195 °C
COc1ccc2c(C#N)c(-c3ncc(S(=O)(=O)NC(CF)CF)cn3)n(C3CCC3)c2n1 [Cpd 42, 2-(3-cyano-1-cyclobutyl-6-methoxy-1H-pyrrolo[2,3-b]pyridin-2-yl)-N-(1,3-difluoropropan-2-yl)pyrimidine-5-sulfonamide]	< 500 nM	229 to 230 °C
COc1ccc2c(C#N)c(-c3ccc(S(=O)(=O)NC(C)(C)C)cc3)n(C3CCC3)c2n1 [Cpd 44, N-tert-butyl-4-(3-cyano-1-cyclobutyl-6-methoxy-1H-pyrrolo[2,3-b]pyridin-2-yl)benzenesulfonamide]	< 500 nM	155 to 157 °C
Cc1ncc2c(C#N)c(-c3ccc(S(=O)(=O)N[C@@H](C)C4CC4)cn3)n(C3CCC3)c2n1 [Cpd 45, 6-(5-cyano-7-cyclobutyl-2-methyl-7H-pyrrolo[2,3-d]pyrimidin-6-yl)-N-[(1S)-1-cyclopropylethyl]pyridine-3-sulfonamide]	< 500 nM	155 to 157 °C
Cc1ncc2c(C#N)c(-c3ccc(S(=O)(=O)N[C@H](C)C(F)(F)F)cn3)n(C3CCC3)c2n1 [Cpd 46, 6-(5-cyano-7-cyclobutyl-2-methyl-7H-pyrrolo[2,3-d]pyrimidin-6-yl)-N-[(2R)-1,1,1-trifluoropropan-2-yl]pyridine-3-sulfonamide]	< 500 nM	166 to 168 °C
C[C@@H](NS(=O)(=O)c1ccc(-c2c(C#N)c3cc(F)cnc3n2C2CCC2)nc1)C(F)(F)F [Cpd 47, 6-(3-cyano-1-cyclobutyl-5-fluoro-1H-pyrrolo[2,3-b]pyridin-2-yl)-N-[(2R)-1,1,1-trifluoropropan-2-yl]pyridine-3-sulfonamide]	< 500 nM	167 to 169 °C
COc1cnc2c(c1)c(C#N)c(-c1ncc(S(=O)(=O)NC(C)C)cn1)n2C1CCC1 [Cpd 49, 2-(3-cyano-1-cyclobutyl-5-methoxy-1H-pyrrolo[2,3-b]pyridin-2-yl)-N-(propan-2-yl)pyrimidine-5-sulfonamide]	< 500 nM	215 to 217 °C
